Experimental data as given in ChEMBL document CHEMBL4507288 (2021).
The source made the active and inactive calls. The rule behind the calls is not given here.

Tests used:
[1] = target: Amyloid-beta precursor protein (Homo sapiens, UniProt P05067); assay: Radioligand Binding Assay
[2] = system: Tyrosine-protein kinase ABL1 (Homo sapiens), P00519 [Y253F]; details: Compound concentration 1000.0 nM
[3] = target: Tyrosine-protein kinase ABL2 (Homo sapiens) (UniProt P42684); details: Compound concentration 1000.0 nM
[4] = target: Atypical kinase COQ8B, mitochondrial (Homo sapiens) (UniProt Q96D53); details: Compound concentration 1000.0 nM
[5] = target: Calcium/calmodulin-dependent protein kinase type 1B (Homo sapiens) (UniProt Q6P2M8); details: Compound concentration 1000.0 nM
[6] = target: Calcium/calmodulin-dependent protein kinase type II subunit beta (Homo sapiens) (UniProt Q13554); details: Compound concentration 1000.0 nM
[7] = target: Calcium/calmodulin-dependent protein kinase type II subunit delta (Homo sapiens) (UniProt Q13557); details: Compound concentration 1000.0 nM
[8] = target: Cyclin-dependent kinase-like 1 (Homo sapiens) (UniProt Q00532); details: Compound concentration 1000.0 nM
[9] = target: Megakaryocyte-associated tyrosine-protein kinase (Homo sapiens) (UniProt P42679); details: Compound concentration 1000.0 nM
[10] = target: Death-associated protein kinase 1 (Homo sapiens) (UniProt P53355); details: Compound concentration 1000.0 nM
[11] = target: Death-associated protein kinase 2 (Homo sapiens) (UniProt Q9UIK4); details: Compound concentration 1000.0 nM
[12] = target: Serine/threonine-protein kinase DCLK3 (Homo sapiens) (UniProt Q9C098); details: Compound concentration 1000.0 nM
[13] = target: Serine/threonine-protein kinase 17B (Homo sapiens) (UniProt O94768); details: Compound concentration 1000.0 nM
[14] = system: Epidermal growth factor receptor (Homo sapiens), P00533 [UNDEFINED MUTATION]; details: Compound concentration 1000.0 nM
[15] = target: Receptor tyrosine-protein kinase erbB-4 (Homo sapiens) (UniProt Q15303); details: Compound concentration 1000.0 nM
[16] = target: Rhodopsin kinase GRK7 (Homo sapiens) (UniProt Q8WTQ7); details: Compound concentration 1000.0 nM
[17] = target: Hormonally up-regulated neu tumor-associated kinase (Homo sapiens) (UniProt P57058); details: Compound concentration 1000.0 nM
[18] = target: Interleukin-1 receptor-associated kinase 1 (Homo sapiens) (UniProt P51617); details: Compound concentration 1000.0 nM
[19] = target: Tyrosine-protein kinase JAK3 (Homo sapiens) (UniProt P52333); details: Compound concentration 1000.0 nM
[20] = system: Mast/stem cell growth factor receptor Kit (Homo sapiens), P10721 [D816H]; details: Compound concentration 1000.0 nM
[21] = target: Mast/stem cell growth factor receptor Kit (Homo sapiens) (UniProt P10721); details: Compound concentration 1000.0 nM
[22] = target: Mitogen-activated protein kinase kinase kinase kinase 4 (Homo sapiens) (UniProt O95819); details: Compound concentration 1000.0 nM
[23] = target: Serine/threonine-protein kinase Nek1 (Homo sapiens) (UniProt Q96PY6); details: Compound concentration 1000.0 nM
[24] = target: Serine/threonine-protein kinase Nek11 (Homo sapiens) (UniProt Q8NG66); details: Compound concentration 1000.0 nM
[25] = target: Serine/threonine-protein kinase Nek4 (Homo sapiens) (UniProt P51957); details: Compound concentration 1000.0 nM
[26] = target: Serine/threonine-protein kinase Nek7 (Homo sapiens) (UniProt Q8TDX7); details: Compound concentration 1000.0 nM
[27] = system: Phosphatidylinositol 4,5-bisphosphate 3-kinase catalytic subunit alpha isoform (Homo sapiens), P42336 [E545K]; details: Compound concentration 1000.0 nM
[28] = system: Phosphatidylinositol 4,5-bisphosphate 3-kinase catalytic subunit alpha isoform (Homo sapiens), P42336 [H1047L]; details: Compound concentration 1000.0 nM
[29] = system: Phosphatidylinositol 4,5-bisphosphate 3-kinase catalytic subunit alpha isoform (Homo sapiens), P42336 [Q546K]; details: Compound concentration 1000.0 nM
[30] = target: Serine/threonine-protein kinase pim-1 (Homo sapiens) (UniProt P11309); details: Compound concentration 1000.0 nM
[31] = target: Phosphatidylinositol 5-phosphate 4-kinase type-2 beta (Homo sapiens) (UniProt P78356); details: Compound concentration 1000.0 nM
[32] = target: Serine/threonine-protein kinase PLK1 (Homo sapiens) (UniProt P53350); details: Compound concentration 1000.0 nM
[33] = target: Protein kinase C eta type (Homo sapiens) (UniProt P24723); details: Compound concentration 1000.0 nM
[34] = target: Serine/threonine-protein kinase D2 (Homo sapiens) (UniProt Q9BZL6); details: Compound concentration 1000.0 nM
[35] = target: Proto-oncogene tyrosine-protein kinase receptor Ret (Homo sapiens) (UniProt P07949); details: Compound concentration 1000.0 nM
[36] = target: Rho-associated protein kinase 2 (Homo sapiens) (UniProt O75116); details: Compound concentration 1000.0 nM
[37] = target: Serine/threonine-protein kinase SBK1 (Homo sapiens) (UniProt Q52WX2); details: Compound concentration 1000.0 nM
[38] = target: Tyrosine-protein kinase SYK (Homo sapiens) (UniProt P43405); details: Compound concentration 1000.0 nM
[39] = target: Tyrosine-protein kinase receptor Tie-1 (Homo sapiens) (UniProt P35590); details: Compound concentration 1000.0 nM
[40] = target: BDNF/NT-3 growth factors receptor (Homo sapiens) (UniProt Q16620); details: Compound concentration 1000.0 nM
[41] = target: NT-3 growth factor receptor (Homo sapiens) (UniProt Q16288); details: Compound concentration 1000.0 nM
[42] = target: Serine/threonine-protein kinase 32A (Homo sapiens) (UniProt Q8WU08); details: Compound concentration 1000.0 nM
[43] = target: Tyrosine-protein kinase Yes (Homo sapiens) (UniProt P07947); details: Compound concentration 1000.0 nM
[44] = target: Mitogen-activated protein kinase kinase kinase 20 (Homo sapiens) (UniProt Q9NYL2); details: Compound concentration 1000.0 nM
[45] = target: 5-hydroxytryptamine receptor 1E (Homo sapiens) (UniProt P28566); details: Compound concentration 10.0 uM

Sequence of Serine/threonine-protein kinase 32A (Homo sapiens) (Q8WU08 whole entry): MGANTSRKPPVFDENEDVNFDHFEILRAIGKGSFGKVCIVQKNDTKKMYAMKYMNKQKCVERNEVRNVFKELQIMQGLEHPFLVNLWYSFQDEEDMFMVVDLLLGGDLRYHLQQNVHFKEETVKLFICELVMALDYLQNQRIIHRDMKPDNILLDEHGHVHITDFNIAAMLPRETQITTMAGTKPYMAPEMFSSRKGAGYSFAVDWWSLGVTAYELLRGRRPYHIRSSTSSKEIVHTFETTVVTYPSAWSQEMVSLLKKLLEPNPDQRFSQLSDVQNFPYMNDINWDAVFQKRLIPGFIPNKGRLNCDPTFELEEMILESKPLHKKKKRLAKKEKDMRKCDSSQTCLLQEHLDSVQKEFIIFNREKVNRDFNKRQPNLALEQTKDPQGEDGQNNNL
Sequence of Epidermal growth factor receptor (Homo sapiens), P00533 [UNDEFINED MUTATION] (P00533 whole entry, looked up, change not shown): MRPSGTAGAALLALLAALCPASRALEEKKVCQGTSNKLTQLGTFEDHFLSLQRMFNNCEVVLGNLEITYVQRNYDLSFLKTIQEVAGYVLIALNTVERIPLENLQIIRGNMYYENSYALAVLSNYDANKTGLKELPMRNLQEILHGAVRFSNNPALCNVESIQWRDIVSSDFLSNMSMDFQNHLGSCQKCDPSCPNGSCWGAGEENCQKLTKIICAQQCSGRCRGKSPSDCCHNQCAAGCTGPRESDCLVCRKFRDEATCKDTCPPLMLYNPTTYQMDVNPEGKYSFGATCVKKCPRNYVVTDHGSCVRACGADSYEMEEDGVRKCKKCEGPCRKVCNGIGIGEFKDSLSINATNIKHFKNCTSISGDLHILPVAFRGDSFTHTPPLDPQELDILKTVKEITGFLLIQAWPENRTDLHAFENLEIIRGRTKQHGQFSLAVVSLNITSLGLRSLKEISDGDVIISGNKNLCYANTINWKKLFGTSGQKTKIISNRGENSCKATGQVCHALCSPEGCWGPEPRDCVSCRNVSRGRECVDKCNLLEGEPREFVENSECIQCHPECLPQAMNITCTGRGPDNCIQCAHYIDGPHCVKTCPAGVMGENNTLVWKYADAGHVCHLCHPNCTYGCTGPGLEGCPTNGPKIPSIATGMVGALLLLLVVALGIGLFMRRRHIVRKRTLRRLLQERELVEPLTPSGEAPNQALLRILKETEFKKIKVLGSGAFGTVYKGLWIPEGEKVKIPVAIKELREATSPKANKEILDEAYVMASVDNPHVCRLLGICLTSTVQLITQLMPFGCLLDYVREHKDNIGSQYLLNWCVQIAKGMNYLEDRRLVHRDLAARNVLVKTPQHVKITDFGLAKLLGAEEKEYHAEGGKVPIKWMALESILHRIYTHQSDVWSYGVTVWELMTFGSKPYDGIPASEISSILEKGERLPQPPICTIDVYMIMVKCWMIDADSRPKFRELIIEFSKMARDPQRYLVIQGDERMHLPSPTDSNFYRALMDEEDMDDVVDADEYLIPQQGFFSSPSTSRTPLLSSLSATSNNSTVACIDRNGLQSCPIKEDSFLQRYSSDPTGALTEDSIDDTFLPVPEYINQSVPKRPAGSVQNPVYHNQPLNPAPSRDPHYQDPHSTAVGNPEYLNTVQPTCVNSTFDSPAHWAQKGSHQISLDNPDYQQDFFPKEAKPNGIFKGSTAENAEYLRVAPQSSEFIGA
Sequence of Death-associated protein kinase 1 (Homo sapiens) (P53355 whole entry, looked up): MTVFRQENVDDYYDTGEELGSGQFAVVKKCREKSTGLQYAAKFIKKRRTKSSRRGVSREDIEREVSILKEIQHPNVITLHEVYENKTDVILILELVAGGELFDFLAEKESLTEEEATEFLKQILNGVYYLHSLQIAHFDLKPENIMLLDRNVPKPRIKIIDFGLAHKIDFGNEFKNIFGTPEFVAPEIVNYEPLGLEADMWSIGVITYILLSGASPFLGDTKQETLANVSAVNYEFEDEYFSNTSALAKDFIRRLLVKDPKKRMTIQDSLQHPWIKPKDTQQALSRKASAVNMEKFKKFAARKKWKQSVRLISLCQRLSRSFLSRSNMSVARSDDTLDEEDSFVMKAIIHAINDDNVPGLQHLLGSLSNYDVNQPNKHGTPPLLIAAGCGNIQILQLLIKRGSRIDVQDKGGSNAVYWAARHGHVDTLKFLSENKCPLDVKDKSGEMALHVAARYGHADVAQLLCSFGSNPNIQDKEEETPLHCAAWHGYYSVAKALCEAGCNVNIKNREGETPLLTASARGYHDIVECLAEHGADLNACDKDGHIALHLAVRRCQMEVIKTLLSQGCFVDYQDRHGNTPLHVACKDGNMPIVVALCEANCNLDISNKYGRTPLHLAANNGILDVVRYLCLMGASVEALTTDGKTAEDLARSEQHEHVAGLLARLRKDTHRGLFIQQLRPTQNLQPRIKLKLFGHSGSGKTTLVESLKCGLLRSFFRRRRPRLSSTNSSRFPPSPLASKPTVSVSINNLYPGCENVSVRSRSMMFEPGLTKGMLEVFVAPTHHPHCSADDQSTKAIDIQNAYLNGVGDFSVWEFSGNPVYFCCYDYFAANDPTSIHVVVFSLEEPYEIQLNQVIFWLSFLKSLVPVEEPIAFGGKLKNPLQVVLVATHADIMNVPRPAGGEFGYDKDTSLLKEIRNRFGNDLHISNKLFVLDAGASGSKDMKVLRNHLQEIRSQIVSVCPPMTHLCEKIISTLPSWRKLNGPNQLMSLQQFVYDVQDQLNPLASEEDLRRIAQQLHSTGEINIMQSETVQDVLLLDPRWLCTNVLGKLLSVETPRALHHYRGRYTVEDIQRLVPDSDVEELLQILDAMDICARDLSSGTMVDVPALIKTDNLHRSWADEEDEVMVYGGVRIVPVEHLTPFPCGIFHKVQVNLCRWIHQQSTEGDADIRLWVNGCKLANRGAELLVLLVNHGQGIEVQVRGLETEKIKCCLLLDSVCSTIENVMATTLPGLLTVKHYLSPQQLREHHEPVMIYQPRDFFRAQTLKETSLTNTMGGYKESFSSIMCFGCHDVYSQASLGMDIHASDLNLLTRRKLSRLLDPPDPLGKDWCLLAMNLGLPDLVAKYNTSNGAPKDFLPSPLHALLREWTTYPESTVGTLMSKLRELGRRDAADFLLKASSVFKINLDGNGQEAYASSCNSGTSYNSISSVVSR
Sequence of Phosphatidylinositol 5-phosphate 4-kinase type-2 beta (Homo sapiens) (P78356 whole entry): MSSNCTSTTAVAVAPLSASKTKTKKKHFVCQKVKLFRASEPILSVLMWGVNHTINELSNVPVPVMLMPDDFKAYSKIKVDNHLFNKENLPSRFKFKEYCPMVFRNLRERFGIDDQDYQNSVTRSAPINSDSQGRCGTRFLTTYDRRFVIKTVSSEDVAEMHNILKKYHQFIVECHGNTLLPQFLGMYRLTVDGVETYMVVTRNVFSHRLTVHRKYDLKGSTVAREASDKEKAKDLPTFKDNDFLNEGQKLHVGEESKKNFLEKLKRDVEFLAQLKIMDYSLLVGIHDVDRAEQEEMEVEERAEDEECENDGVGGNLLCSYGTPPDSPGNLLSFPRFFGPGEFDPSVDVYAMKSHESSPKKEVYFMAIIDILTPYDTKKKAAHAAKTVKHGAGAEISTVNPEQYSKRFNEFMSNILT
Sequence of Amyloid-beta precursor protein (P05067 whole entry): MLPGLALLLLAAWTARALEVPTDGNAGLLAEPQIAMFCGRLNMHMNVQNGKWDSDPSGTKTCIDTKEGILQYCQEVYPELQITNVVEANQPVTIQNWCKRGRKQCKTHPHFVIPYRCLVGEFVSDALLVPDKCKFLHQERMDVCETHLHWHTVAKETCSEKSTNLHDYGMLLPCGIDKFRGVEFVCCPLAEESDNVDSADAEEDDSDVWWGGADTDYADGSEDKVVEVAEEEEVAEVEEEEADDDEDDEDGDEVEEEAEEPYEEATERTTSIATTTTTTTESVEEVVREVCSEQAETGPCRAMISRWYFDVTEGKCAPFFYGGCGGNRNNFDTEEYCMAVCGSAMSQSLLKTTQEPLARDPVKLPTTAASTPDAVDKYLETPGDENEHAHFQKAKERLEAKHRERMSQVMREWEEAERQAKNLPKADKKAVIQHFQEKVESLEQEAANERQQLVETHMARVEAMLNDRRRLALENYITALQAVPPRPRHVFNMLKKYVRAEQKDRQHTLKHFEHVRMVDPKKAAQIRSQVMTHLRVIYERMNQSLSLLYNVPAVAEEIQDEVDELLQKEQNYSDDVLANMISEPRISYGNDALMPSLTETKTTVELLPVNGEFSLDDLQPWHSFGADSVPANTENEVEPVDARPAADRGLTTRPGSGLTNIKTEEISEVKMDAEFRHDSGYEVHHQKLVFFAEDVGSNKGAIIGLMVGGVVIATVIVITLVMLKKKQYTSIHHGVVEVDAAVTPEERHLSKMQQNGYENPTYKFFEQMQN
Sequence of Rhodopsin kinase GRK7 (Homo sapiens) (Q8WTQ7 whole entry): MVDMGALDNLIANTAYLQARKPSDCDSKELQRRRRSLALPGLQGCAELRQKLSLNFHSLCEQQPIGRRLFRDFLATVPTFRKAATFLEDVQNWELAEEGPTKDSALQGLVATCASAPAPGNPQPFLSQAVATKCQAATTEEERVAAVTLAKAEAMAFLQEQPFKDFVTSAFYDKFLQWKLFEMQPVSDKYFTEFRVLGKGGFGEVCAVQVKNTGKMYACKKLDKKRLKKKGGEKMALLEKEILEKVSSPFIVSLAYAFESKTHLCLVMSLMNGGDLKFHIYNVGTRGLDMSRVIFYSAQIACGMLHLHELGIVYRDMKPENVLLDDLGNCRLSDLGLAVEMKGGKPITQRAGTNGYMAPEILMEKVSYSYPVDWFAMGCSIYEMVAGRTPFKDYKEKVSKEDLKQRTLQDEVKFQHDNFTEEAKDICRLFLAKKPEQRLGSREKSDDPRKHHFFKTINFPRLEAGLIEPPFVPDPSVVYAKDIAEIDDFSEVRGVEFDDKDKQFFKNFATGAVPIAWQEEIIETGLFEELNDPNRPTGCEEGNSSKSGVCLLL
Sequence of Serine/threonine-protein kinase Nek7 (Homo sapiens) (Q8TDX7 whole entry, looked up, canonical isoform): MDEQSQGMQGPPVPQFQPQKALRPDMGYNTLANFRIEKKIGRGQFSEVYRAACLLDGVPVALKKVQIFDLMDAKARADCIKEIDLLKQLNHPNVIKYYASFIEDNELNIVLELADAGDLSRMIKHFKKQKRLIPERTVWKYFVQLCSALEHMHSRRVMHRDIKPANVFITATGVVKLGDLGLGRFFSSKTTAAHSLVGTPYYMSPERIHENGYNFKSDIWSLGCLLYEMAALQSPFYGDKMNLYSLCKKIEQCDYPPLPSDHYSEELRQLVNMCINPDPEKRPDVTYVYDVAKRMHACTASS

In the case of `O=S(=O)(NC1CCC(c2cc(F)ccc2F)(S(=O)(=O)c2ccc(Cl)cc2)CC1)C(F)(F)F` (stereo not given) [MRK-560], the IC50 [1] is reported as 0.65 nM (active), the residual activity [2] is reported as 100% and the residual activity [3] is reported as 100%. For the same compound, the residual activity [4] was 88%, the residual activity [5] was 100% and the residual activity [6] was 97%. The residual activity [7] was 100%, the residual activity [8] was 100% and the residual activity [9] was 100%. For the same compound, the residual activity [10] was 95%, the residual activity [11] was 96% and the residual activity [12] was 100%. The residual activity [13] was 97%, the residual activity [14] was 92% and the residual activity [15] was 94%. For the same compound, the residual activity [16] was 100%, the residual activity [17] was 100% and the residual activity [18] was 93%. The residual activity [19] was 100%, the residual activity [20] was 71% and the residual activity [21] was 100%. It also gave a residual activity [22] of 71%, a residual activity [23] of 100% and a residual activity [24] of 100%. For the same compound, the residual activity [25] was 100%, the residual activity [26] was 100% and the residual activity [27] was 77%. The residual activity [28] was 41%, the residual activity [29] was 91% and the residual activity [30] was 100%. It also gave a residual activity [31] of 68%, a residual activity [32] of 100% and a residual activity [33] of 99%. It also gave a residual activity [34] of 79%, a residual activity [35] of 92% and a residual activity [36] of 100%. It also gave a residual activity [37] of 75%, a residual activity [38] of 89% and a residual activity [39] of 100%. The residual activity [40] was 83%, the residual activity [41] was 91% and the residual activity [42] was 97%. It also gave a residual activity [43] of 89%, a residual activity [44] of 92% and an inhibition [45] of -8.31%.
